Laboratory results: ChEMBL document CHEMBL5126531, “NAE modulators: A potential therapy for gastric carcinoma” (Eur J Med Chem, 2022)
One block for each molecule: values may come before it.

Key:
NEDD8 activating enzyme = biological target: T1, NEDD8 activating enzyme (Homo sapiens, UniProt Q8TBC4); assay: Inhibition of recombinant human APPBP1/UBA3 expressed in Escherichia coli assessed as Ub/Ubl thioester transfer
T1 sequence (Q8TBC4 whole entry): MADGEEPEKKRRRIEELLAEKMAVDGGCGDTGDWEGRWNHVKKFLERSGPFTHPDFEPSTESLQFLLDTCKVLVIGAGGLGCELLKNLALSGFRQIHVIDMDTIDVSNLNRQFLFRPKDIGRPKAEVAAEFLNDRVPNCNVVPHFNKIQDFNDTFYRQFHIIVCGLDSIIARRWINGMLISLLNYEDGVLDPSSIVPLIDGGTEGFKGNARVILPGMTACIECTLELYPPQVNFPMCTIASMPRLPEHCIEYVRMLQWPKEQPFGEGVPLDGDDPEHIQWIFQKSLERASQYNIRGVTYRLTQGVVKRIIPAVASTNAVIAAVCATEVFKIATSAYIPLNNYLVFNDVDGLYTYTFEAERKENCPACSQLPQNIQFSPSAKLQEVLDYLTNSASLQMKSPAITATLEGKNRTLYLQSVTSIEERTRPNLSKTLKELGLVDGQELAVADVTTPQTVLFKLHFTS
T1 sequence (Q13564 whole entry): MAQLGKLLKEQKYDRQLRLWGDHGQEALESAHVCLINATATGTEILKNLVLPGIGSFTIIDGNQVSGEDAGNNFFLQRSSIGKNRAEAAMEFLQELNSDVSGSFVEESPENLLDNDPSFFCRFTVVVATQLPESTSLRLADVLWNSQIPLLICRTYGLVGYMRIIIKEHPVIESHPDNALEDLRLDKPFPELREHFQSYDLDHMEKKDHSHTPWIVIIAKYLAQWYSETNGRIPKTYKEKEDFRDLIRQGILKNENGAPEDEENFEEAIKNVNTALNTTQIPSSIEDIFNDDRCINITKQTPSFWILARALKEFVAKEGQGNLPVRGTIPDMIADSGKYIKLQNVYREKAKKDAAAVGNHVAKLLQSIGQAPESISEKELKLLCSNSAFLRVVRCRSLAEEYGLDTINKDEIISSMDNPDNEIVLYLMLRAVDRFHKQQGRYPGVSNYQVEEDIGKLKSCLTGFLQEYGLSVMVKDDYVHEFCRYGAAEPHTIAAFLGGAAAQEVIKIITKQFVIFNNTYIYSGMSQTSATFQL

[1] = biological target: T2, Ubiquitin-like modifier-activating enzyme 1 (Homo sapiens, UniProt P22314); assay: Inhibition of recombinant C-terminal His-tagged human full length UAE1 expressed in Escherichia coli BL21 (lambdaDE3) assessed as reduction in transfer of Ub to UBE2C enzyme
T2 sequence (P22314 whole entry): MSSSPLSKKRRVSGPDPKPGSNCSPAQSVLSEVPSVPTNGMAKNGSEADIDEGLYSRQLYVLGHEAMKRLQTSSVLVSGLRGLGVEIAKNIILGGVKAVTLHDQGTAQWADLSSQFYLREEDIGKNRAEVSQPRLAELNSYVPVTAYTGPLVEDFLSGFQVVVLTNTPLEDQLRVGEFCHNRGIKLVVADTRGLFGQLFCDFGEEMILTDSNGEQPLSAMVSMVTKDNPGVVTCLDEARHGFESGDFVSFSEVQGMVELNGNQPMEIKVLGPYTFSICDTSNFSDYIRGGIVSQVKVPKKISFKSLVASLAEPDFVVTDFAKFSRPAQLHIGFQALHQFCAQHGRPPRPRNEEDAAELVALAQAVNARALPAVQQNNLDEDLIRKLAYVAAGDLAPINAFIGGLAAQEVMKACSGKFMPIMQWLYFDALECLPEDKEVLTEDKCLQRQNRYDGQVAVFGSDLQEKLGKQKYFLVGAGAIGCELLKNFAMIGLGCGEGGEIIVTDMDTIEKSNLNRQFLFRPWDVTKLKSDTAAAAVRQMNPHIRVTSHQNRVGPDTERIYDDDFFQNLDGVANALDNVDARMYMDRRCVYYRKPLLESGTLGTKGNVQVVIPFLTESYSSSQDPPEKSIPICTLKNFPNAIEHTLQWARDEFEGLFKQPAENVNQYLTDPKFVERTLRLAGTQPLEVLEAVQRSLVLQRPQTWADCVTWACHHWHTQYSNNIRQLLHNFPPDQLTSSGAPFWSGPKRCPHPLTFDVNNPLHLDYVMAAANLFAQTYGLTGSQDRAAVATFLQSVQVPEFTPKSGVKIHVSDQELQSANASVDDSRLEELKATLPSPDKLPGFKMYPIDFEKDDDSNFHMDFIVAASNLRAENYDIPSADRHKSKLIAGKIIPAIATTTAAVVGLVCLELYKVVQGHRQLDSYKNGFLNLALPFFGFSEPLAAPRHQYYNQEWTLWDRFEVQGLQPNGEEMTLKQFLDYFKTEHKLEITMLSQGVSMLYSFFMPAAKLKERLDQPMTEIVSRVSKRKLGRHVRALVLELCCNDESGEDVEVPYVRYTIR

SUMO-activating enzyme [2] = biological target: T3, SUMO-activating enzyme (Homo sapiens, UniProt Q9UBT2); assay: Inhibition of recombinant human SAE1/UBA2 expressed in Escherichia coli assessed as reduction in transfer of […] to UBE2I enzyme
CCRF-CEM = assay: Antiproliferative activity against human CCRF-CEM assessed as net growth rate at <1 uM […] by CellTiter-Glo assay relative to control; type: functional
[3] = Toxicity in SCID mouse xenografted with human TMD8 cells expressing luciferase gene assessed as survival days at 100 mg/kg/day, iv administered at 1 to 21 days cycle for 8 cycles; type: organism-based; conditions: in vivo, time 1-21 day
[4] = biological target: T4, NEDD8-activating enzyme E1 regulatory subunit (Homo sapiens, UniProt Q13564); assay: Inhibition of NAE (unknown origin)
T4 sequence (Q13564 whole entry): T1 sequence (Q13564 whole entry)

[5] = biological target: T2, Ubiquitin-like modifier-activating enzyme 1; assay: Inhibition of UAE (unknown origin)
MGC-803 [6] = assay: Antiproliferative activity against human MGC-803 cells assessed as inhibition of cell growth incubated for 48 hrs by MTT assay; type: functional, cell-based; conditions: MGC-803, 48 h
MGC-803 [7] = assay: Induction of apoptosis in human MGC-803 cells assessed as total apoptotic cells at 0.5 micromol/L incubated for 48 hrs by Annexin V-FITC/PI staining based flow cytometric analysis (reference value: 3.2%); type: functional; conditions: dose 0.5 µmol/L, at 0.5 µM
MGC-803 [8] = assay: Induction of apoptosis in human MGC-803 cells assessed as total apoptotic cells at 1 micromol/L incubated for 48 hrs by Annexin V-FITC/PI staining based flow cytometric analysis (reference value: 3.2%); type: functional; conditions: dose 1 µmol/L, at 1 µM
MGC-803 [9] = assay: Induction of apoptosis in human MGC-803 cells assessed as total apoptotic cells at 2 micromol/L incubated for 48 hrs by Annexin V-FITC/PI staining based flow cytometric analysis (reference value: 3.2%); type: functional; conditions: dose 2 µmol/L, at 2 µM
[10] = biological target: T5, NEDD8-conjugating enzyme Ubc12 (Homo sapiens, UniProt P61081); assay: Inhibition of Ubc12 (unknown origin)-neddylation incubated for 30 mins in presence of ATP by Western blot analysis
T5 sequence (P61081 whole entry): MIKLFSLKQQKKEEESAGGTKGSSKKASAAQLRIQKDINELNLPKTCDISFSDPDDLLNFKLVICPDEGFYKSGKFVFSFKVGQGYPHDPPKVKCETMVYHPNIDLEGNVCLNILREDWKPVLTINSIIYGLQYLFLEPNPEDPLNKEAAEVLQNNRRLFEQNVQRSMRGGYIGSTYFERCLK

SUMO-activating enzyme [11] = biological target: T3, SUMO-activating enzyme; assay: Inhibition of SAE1/UBA2 in human HCT-116 cells assessed as reduction in Ubc9-SUMO level incubated for 24 hrs by immunoblot analysis; type: cell-based
[12] = biological target: T6, Ubiquitin-like modifier-activating enzyme 6 (Homo sapiens, UniProt A0AVT1); assay: Inhibition of His-tagged UBA6 (unknown origin) expressed in sf9 insect cells
T6 sequence (A0AVT1 whole entry): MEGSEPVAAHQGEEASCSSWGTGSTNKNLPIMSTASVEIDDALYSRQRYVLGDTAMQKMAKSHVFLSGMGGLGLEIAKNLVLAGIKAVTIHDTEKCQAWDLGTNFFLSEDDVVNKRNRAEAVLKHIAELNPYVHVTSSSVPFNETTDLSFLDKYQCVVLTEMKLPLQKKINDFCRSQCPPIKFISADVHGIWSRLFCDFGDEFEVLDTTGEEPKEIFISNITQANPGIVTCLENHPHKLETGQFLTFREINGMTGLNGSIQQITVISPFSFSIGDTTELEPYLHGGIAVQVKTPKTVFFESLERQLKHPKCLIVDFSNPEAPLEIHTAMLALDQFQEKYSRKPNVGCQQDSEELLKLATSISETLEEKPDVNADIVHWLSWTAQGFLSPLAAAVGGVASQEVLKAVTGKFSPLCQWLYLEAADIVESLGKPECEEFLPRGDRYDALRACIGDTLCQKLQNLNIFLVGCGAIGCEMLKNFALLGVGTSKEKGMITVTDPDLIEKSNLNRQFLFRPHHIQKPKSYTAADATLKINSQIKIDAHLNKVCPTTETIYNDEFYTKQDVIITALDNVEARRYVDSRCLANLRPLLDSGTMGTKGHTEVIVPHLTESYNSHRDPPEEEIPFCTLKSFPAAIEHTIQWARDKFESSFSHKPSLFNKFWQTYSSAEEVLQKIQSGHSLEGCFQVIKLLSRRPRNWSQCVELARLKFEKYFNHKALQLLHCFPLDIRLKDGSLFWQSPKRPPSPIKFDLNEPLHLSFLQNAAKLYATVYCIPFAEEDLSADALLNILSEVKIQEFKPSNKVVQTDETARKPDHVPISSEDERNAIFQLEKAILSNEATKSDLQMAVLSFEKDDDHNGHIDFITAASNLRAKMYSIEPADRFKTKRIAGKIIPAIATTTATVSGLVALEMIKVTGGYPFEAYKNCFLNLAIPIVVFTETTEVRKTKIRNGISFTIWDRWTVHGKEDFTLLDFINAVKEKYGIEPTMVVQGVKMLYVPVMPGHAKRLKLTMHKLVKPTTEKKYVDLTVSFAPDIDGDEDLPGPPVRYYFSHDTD

[13] = biological target: T7, Ubiquitin-like modifier-activating enzyme ATG7 (Homo sapiens, UniProt O95352); assay: Inhibition of His-tagged ATG7 (unknown origin) expressed in sf9 insect cells
T7 sequence (O95352 whole entry): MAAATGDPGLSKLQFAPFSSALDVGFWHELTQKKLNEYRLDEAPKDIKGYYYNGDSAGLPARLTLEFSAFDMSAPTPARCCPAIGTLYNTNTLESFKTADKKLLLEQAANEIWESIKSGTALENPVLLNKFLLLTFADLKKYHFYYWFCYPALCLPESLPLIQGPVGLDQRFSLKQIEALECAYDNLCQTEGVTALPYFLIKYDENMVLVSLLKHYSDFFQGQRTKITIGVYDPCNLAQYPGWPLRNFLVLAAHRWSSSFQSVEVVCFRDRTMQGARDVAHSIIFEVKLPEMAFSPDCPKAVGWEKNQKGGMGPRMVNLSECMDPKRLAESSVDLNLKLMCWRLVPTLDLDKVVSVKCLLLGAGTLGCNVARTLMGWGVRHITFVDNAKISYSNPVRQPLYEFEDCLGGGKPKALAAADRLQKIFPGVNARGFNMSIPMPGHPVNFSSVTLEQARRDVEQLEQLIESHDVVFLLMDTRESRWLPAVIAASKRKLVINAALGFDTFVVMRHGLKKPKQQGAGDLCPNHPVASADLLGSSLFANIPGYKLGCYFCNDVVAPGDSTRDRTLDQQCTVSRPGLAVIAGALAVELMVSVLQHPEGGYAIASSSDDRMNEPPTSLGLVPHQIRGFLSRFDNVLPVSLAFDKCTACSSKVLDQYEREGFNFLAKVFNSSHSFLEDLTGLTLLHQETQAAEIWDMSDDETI

T3 sequence (Q9UBE0 whole entry): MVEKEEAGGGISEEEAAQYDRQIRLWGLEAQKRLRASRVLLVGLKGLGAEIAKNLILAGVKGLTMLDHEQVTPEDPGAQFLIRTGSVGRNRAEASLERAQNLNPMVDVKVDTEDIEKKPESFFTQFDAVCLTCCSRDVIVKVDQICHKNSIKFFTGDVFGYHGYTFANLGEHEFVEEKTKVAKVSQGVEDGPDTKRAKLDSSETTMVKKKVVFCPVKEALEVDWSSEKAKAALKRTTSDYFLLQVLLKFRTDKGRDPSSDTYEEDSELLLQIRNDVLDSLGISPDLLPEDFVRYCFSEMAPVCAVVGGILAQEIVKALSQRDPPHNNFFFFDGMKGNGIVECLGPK
T3 sequence (Q9UBT2 whole entry): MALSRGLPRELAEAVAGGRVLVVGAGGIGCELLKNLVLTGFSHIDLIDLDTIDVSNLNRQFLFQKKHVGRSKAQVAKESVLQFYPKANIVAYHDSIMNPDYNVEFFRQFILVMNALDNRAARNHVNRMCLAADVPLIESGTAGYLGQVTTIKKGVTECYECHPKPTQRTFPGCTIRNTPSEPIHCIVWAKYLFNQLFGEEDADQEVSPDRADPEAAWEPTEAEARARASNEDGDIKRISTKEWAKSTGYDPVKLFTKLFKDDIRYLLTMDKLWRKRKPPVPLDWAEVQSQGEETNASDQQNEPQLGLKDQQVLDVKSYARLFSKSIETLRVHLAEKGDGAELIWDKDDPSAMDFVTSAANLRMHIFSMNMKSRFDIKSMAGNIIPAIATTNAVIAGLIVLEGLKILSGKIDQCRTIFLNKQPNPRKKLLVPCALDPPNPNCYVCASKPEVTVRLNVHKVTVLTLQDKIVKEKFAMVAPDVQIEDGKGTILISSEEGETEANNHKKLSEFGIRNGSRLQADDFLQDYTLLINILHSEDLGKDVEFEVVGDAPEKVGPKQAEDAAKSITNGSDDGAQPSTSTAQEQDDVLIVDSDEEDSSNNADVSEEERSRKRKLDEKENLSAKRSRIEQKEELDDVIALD

- IC50 (MGC-803 [6]): 1590 nM
SMILES: COc1ccc(CN(C(=O)Cn2ccc3cc(OC)ccc32)c2cc(OC)c(OC)c(OC)c2)cc1
- Activity (MGC-803 [7]): 4.4%
- Activity (MGC-803 [8]): 11.1%
- Activity (MGC-803 [9]): 65.2%

- IC50 (SUMO-activating enzyme [11]): 8200 nM
- IC50 [12]: 1800 nM
- IC50 [13]: > 10000 nM
SMILES: NS(=O)(=O)OC[C@@H]1C[C@@H](n2ccc3c(N[C@H]4CCc5ccccc54)ncnc32)C[C@@H]1O [PEVONEDISTAT]

The next lines start with the molecule.

SMILES: CCOc1cccc(F)c1C#Cc1cn([C@@H]2O[C@H](CNS(N)(=O)=O)[C@@H](O)[C@H]2O)c2ncnc(N)c12
- IC50 (NEDD8 activating enzyme): 0.955 nM
- IC50 [1]: 449 nM
- IC50 (SUMO-activating enzyme [2]): 1280 nM
- Activity (CCRF-CEM): 0%
- Survival [3]: > 159 days

SMILES: COC(=O)N1CCC2(CC1)C[C@H](Nc1ncnc3c1nnn3[C@@H]1C[C@@H](COS(N)(=O)=O)[C@@H](O)C1)c1ccccc12
- IC50 [4]: 0.5 nM
- IC50 [5]: 66 nM

SMILES: CC(C)=CCc1c(O)c(CC=C(C)C)c2oc3c(O)ccc(O)c3c(=O)c2c1O [GARTANIN]
- IC50 [10]: 10300 nM
